The NIST ThermoML archive (doi:10.1016/j.jct.2011.10.023)

Settings: Liquid, Vibrating tube method

CCCCO [butan-1-ol]
mass density [kg/m3]
Settings	278.15 K	288.15 K	298.15 K	308.15 K	318.15 K	328.15 K	338.15 K	348.15 K	358.15 K
100 kPa	820.9	813.5	805.8	798	790.3	782.3	774	765.6	756.6
1000 kPa	821.6	814.1	806.6	798.8	791.1	783.1	774.9	766.3	757.7
5000 kPa	824.4	817	809.6	802	794.5	786.7	778.7	770.5	761.7
10000 kPa	827.7	820.5	813.3	805.9	798.5	790.9	783.2	775.3	767
15000 kPa	830.9	823.9	816.8	809.5	802.4	795	787.4	779.8	771.7
20000 kPa	834	827.2	820.2	813	805.6	798.8	791.4	784	776.2
25000 kPa	837	830.3	823.5	816.4	809.5	802.4	795.3	788	780.4
30000 kPa	839.9	833.2	826.6	819.7	812.9	806	799	791.8	784.4
35000 kPa	842.7	836.2	829.6	822.8	816.1	809.4	802.5	795.6	788.3
40000 kPa	845.4	839	832.6	825.9	819.3	812.7	805.9	799.1	792
45000 kPa	848.1	841.7	835.4	828.8	822.4	815.8	809.2	802.5	795.5
50000 kPa	850.7	844.4	838.2	831.7	825.3	818.9	812.4	805.8	799
55000 kPa	853.2	846.8	840.9	834.5	828.2	821.8	815.4	809	802.3
60000 kPa	855.6	849.4	843.3	837	830.9	824.6	818.4	811.9	805.3

CCCO [propan-1-ol]
mass density [kg/m3]
Settings	278.15 K	288.15 K	298.15 K	308.15 K	318.15 K	328.15 K	338.15 K	348.15 K	358.15 K
100 kPa	815.7	807.8	799.8	791.6	783.4	775	766.3	757.2	747.7
1000 kPa	816.4	808.5	800.5	792.4	784.2	775.9	767.2	758.3	748.8
5000 kPa	819.4	811.6	803.8	795.8	787.9	779.7	771.3	762.6	753.5
10000 kPa	822.8	815.3	807.6	800.1	792.2	784.2	776.1	767.7	758.8
15000 kPa	826.2	818.9	811.4	803.8	796.3	788.5	780.6	772.5	764
20000 kPa	829.4	822.3	814.9	807.5	800.2	792.6	784.9	777	768.7
25000 kPa	832.6	825.5	818.3	811.1	803.9	796.5	789	781.3	773.3
30000 kPa	835.7	828.7	821.6	814.5	807.5	800.2	792.9	785.4	777.5
35000 kPa	838.6	831.8	824.8	817.8	810.9	803.8	796.6	789.3	781.6
40000 kPa	841.5	834.7	827.9	821	814.2	807.2	800.2	793	785.5
45000 kPa	844.3	837.6	830.9	824.1	817.5	810.6	803.7	796.6	789.3
50000 kPa	847.1	840.4	833.8	827.1	820.5	813.8	807	800.1	792.9
55000 kPa	849.7	843.1	836.6	830	823.6	816.9	810.3	803.5	796.4
60000 kPa	852.1	845.6	839.2	832.7	825.8	819.8	813.4	806.5	799.6

CCCCCCCCCCCO [1-undecanol]
mass density [kg/m3]
Settings	298.15 K	308.15 K	318.15 K	328.15 K	338.15 K	348.15 K	358.15 K
100 kPa	827.7	820.9	814.1	807.4	800.5	793.3	786
1000 kPa	828.2	821.5	814.7	808	801.1	793.8	786.8
5000 kPa	830.7	824	817.4	810.8	803.9	797.1	790
10000 kPa	833.6	827.1	820.6	814.1	807.3	800.8	793.9
15000 kPa	836.4	830	823.7	817.3	810.6	804.3	797.6
20000 kPa	839.2	832.9	826.6	820.4	813.8	807.6	801.1
25000 kPa	841.8	835.6	829.5	823.3	816.9	810.8	804.4
30000 kPa	844.4	838.3	832.3	826.2	819.9	813.9	807.7
35000 kPa	846.9	840.9	834.8	829	822.8	816.9	810.8
40000 kPa	849.4	843.4	837.6	831.7	825.6	819.9	813.9
45000 kPa	851.8	845.9	840.1	834.4	828.4	822.7	816.6
50000 kPa	854.2	848.3	842.6	837	831	825.5	819.6
55000 kPa	856.5	850.7	845.1	839.5	833.6	828.1	822.4
60000 kPa	858.7	852.9	847.3	841.8	836	830.7	824.9
